Data on 14 compounds can be found in patent publication US10029986B2, “Alkynyl pyridine-substituted amide compound and pesticide” (NISSAN CHEMICAL INDUSTRIES, LTD., priority 2014, dated 2018).

For one test, the system named is Botrytis cinerea. Put plainly: Test on the preventive effect against cucumber gray mold (mycelium inoculation). It is filed as in vivo. The conditions noted are these: 48 h, test solution A 500 ppm, 5 ml per pot, cucumber cotyledon, agar block inoculation, 2 days at 20° C. How it is done: Compounds of the present invention were dissolved in a solvent for emulsion (a mixture of Sorpol (registered trademark) 3005XL (manufactured by Toho Chemical Industry Co., Ltd.): N-methylpyrrolidone: Solvesso (registered trademark) 200 (manufactured by ExxonMobil Chemical) in a ratio of 1:5:2) to prepare 20 wt % emulsifiable concentrates. Then, distilled water was added to dilute the emulsifiable concentrates to the prescribed concentration (500 ppm), and the obtained solutions were used in the following the Test Examples 1 to 8. Cucumber (varieties: Sagami Hanjiro) was seeded in 90 cm^3 plastic pot, and at the cotyledon stage, 5 ml per pot of test solution A of the compounds of the present invention was applied. On the next day, the pot was transferred in a plastic container, and an agar blocks (diameter: 5 mm) containing Botrytis cinerea which was preliminarily cultivated in a PDA medium was inoculated on the cotyledon of the cucumber treated with the solution. After the inoculation, the plastic container was covered with a plastic sheet, then placed at 20° C. and humidified for 2 days. Thus the proportion of the formed lesion in the inoculated leaves were measured to calculate the control value in accordance with the same formula as in the Test Example 1. The test was carried out in duplicate.

The test system of test [1] is Barber pole worm (Haemonchus contortus). Put plainly: Insecticidal test against Barber pole worm (eggs, 96 well plate). Type of test: in vivo. Conditions: 96 h, test solution B 100 ppm, 10 μl per well, 25° C. dark, 4 days after treatment, read-out: efficacy (unhatched eggs and inactive larvae relative to non-treated). How it is done:
(§1) Compounds of the present invention were dissolved in dimethyl sulfoxide to prepare 1 wt % solutions. Then, distilled water was added to dilute the solutions to the prescribed concentration (100 ppm), and the obtained solutions were used in the following the Test Examples 9 to 12. 60 μl of a potato dextrose 1% agar medium was added to each well of a 96 well plate, and 30 μl of sterilized water containing eggs of Barber pole worm (Haemonchus contortus) (10 eggs/3 μl) was added to each well. Further, 10 μl per well of test solution B of the compounds of the present invention was added, and the plate was left at rest at 25° C. under dark conditions.

The test system of test [2] is Blumeria graminis f. sp. tritici. Briefly: Test on the preventive effect against wheat powdery mildew. It is filed as in vivo. Conditions: 168 h, test solution A 500 ppm, 5 ml per pot, wheat 1.3-leaf stage, 7 days after inoculation. The method, then: Compounds of the present invention were dissolved in a solvent for emulsion (a mixture of Sorpol (registered trademark) 3005XL (manufactured by Toho Chemical Industry Co., Ltd.): N-methylpyrrolidone: Solvesso (registered trademark) 200 (manufactured by ExxonMobil Chemical) in a ratio of 1:5:2) to prepare 20 wt % emulsifiable concentrates. Then, distilled water was added to dilute the emulsifiable concentrates to the prescribed concentration (500 ppm), and the obtained solutions were used in the following the Test Examples 1 to 8. Wheat (varieties: Norin 61) was seeded in 90 cm^3 plastic pot, and at the 1.3-leaf stage, 5 ml per pot of test solution A of the compounds of the present invention were applied. One day after treatment, the pot was placed in an air-conditioned greenhouse (20° C.), and conidium of Blumeria graminis f. sp. tritici was inoculated to the wheat. 7 days after, the proportion of the formed lesion in the inoculated leaves were measured to calculate the control value in accordance with the same formula as in the Test Example 1. The test was carried out in duplicate.

Another test has as its system Sclerotinia sclerotiorum. Put plainly: Test on the preventive effect against cucumber stem rot. Type of test: in vivo. The conditions noted are these: 48 h, test solution A 500 ppm, 5 ml per pot, agar block inoculation, 2 days at 20° C. The method, then: Compounds of the present invention were dissolved in a solvent for emulsion (a mixture of Sorpol (registered trademark) 3005XL (manufactured by Toho Chemical Industry Co., Ltd.): N-methylpyrrolidone: Solvesso (registered trademark) 200 (manufactured by ExxonMobil Chemical) in a ratio of 1:5:2) to prepare 20 wt % emulsifiable concentrates. Then, distilled water was added to dilute the emulsifiable concentrates to the prescribed concentration (500 ppm), and the obtained solutions were used in the following the Test Examples 1 to 8. Cucumber (varieties: Sagami Hanjiro) was seeded in 90 cm^3 plastic pot, and at the cotyledon stage, 5 ml per pot of test solution A of the compounds of the present invention was applied. After drying in air, the pot was transferred in a plastic container, and an agar blocks (diameter: 5 mm) containing Sclerotinia sclerotiorum which was preliminarily cultivated in a PDA medium was inoculated to the seed leaves of the cucumber treated with the solution. After the inoculation, the plastic container was covered with a plastic sheet, and placed at 20° C. and humidified for 2 days, thus the proportion of the formed lesion in the inoculated leaves were measured to calculate the control value in accordance with the same formula as in the Test Example 1. The test was carried out in duplicate.

In a further test the test system is Asperaillus niger. Briefly: Test on the antifungal activity against Asperaillus niger. Type of test: cell-based. The conditions noted are these: 48 h; test solution B 100 ppm, 10 μl per well, 96 well plate, 25° C. dark, 2 days after treatment; read-out: efficacy (flora area ratio relative to non-treated well). The method, then: as §1, with “spores” for “eggs”, “Asperaillus niger” for “Barber pole worm (Haemonchus contortus)”, “spores/3” for “eggs/3”, “conditions. 2 days after treatment, the flora area ratio (%) was determined to calculate the efficacy (%) relative to the non-treated well in accordance with the following formula. Efficacy (%)=[1−(flora area ratio in treated plot/flora area ratio in non-treated well)]×100” for “conditions.”

Test [3] concerns Southern root-knot nematode (Meloidogyne incoqnita). Put plainly: Insecticidal test against Southern root-knot nematode (eggs, 96 well plate). It is filed as in vivo. The conditions noted are these: 96 h, test solution B 100 ppm, 10 μl per well, 25° C. dark, 4 days after treatment, read-out: efficacy (unhatched eggs + inactive larvae relative to non-treated). How it is done:
as §1, with “Southern root-knot nematode (Meloidogyne incoqnita)” for “Barber pole worm (Haemonchus contortus)”

For `CSC(CNC(=O)c1cn(C)nc1C(F)F)c1ncc(C#CC2CC2)cc1Cl` (stereo not shown) [8-020, N-[2-[3-chloro-5-(cyclopropylethynyl)pyridin-2-yl]-2-(methylthio)ethyl]-3-difluoromethyl-1-methyl-1H-pyrazole-4-carboxamide], the pest or weed control at 500 µg/mL (with Botrytis cinerea; in test [2]; in the test on Sclerotinia sclerotiorum) was not below 70% throughout. Further, the pest or weed control at 100 µg/mL in test [1] is not below 50%. In the test on Asperaillus niger, the inhibition of growth at 100 µg/mL was not below 50%.

Regarding `COC(=O)C(CNC(=O)c1cn(C)nc1C(F)F)c1ncc(C#CC2CC2)cc1Cl` (stereo not shown) [8-022, 2-[3-chloro-5-(cyclopropylethynyl)pyridin-2-yl]-3-(3-difluoromethyl-1-methyl-1H-pyrazole-4-carboxamide)propionic acid methyl ester], the pest or weed control at 500 µg/mL (with Botrytis cinerea; in test [2]; in the test on Sclerotinia sclerotiorum) was not below 70% in each case.

For the compound `Cn1cc(C(=O)NCCc2ncc(C#CC(C)(C)C)cc2Cl)c(C(F)F)n1` [8-002], the pest or weed control at 500 µg/mL (with Botrytis cinerea; in test [2]; in the test on Sclerotinia sclerotiorum) was not below 70% throughout. Besides, in test [1], the pest or weed control at 100 µg/mL was not below 50%. For the same compound, the inhibition of growth at 100 µg/mL with Asperaillus niger is not below 50%.

With `CC(C)(CNC(=O)c1cccnc1C(F)F)c1ncc(C#CC2CC2)cc1Cl` [3-007, N-[2-[3-chloro-5-(cyclopropylethynyl)pyridin-2-yl]-2-methylpropyl]-2-(difluoromethyl)nicotinamide], the pest or weed control at 500 µg/mL (in the test with Botrytis cinerea; in test [2]; with Sclerotinia sclerotiorum) was not below 70% each time. The pest or weed control at 100 µg/mL in test [1] and in test [3] was not below 50% each time. In addition, the inhibition of growth at 100 µg/mL in the test with Asperaillus niger was not below 50%.

Turning to `CSC(CNC(=O)c1cccnc1C(F)F)c1ncc(C#CC2CC2)cc1Cl` (stereo not shown) [3-020], the pest or weed control at 500 µg/mL (in the test with Botrytis cinerea; in test [2]; in the test on Sclerotinia sclerotiorum) was not below 70% throughout. In addition, the pest or weed control at 100 µg/mL in test [1] and in test [3] was not below 50% each time. Further, in the test on Asperaillus niger, the inhibition of growth at 100 µg/mL is not below 50%.

As to `Cn1cc(C(=O)NCC(c2ncc(C#CC3CC3)cc2Cl)C2CC2)c(C(F)F)n1` (stereo not shown) [8-009], the pest or weed control at 500 µg/mL (in the test on Botrytis cinerea; in test [2]; in the test with Sclerotinia sclerotiorum) was not below 70% in each case. For the same compound, in test [1], the pest or weed control at 100 µg/mL is not below 50%. For the same compound, the inhibition of growth at 100 µg/mL in the test with Asperaillus niger is not below 50%.

With `O=C(NCC(c1ncc(C#CC2CC2)cc1Cl)C1CC1)c1ccccc1C(F)(F)F` (stereo not shown) [1-009], the pest or weed control at 100 µg/mL in test [1] and in test [3] was not below 50% in each case. Moreover, the pest or weed control at 500 µg/mL (in test [2]; in the test with Sclerotinia sclerotiorum) was not below 70% in each case. In addition, the inhibition of growth at 100 µg/mL in the test on Asperaillus niger was not below 50%.

With `Cn1cc(C(=O)NCC2(c3ncc(C#CC4CC4)cc3Cl)CC2)c(C(F)F)n1` [8-018, N-[[1-[3-chloro-5-(cyclopropylethynyl)pyridin-2-yl]cyclopropyl]methyl]-3-difluoromethyl-1-methyl-1H-pyrazole-4-carboxamide], the pest or weed control at 500 µg/mL (with Botrytis cinerea; in test [2]; in the test with Sclerotinia sclerotiorum) was not below 70% each time. The pest or weed control at 100 µg/mL in test [1] and in test [3] was not below 50% each time.

With `CC(NC(=O)c1ccccc1C(F)(F)F)C(OCc1ccccc1)c1ncc(C#CC2CC2)cc1Cl` (stereo not shown) [1-031, N-[2-benzyloxy-2-[3-chloro-5-(cyclopropylethynyl)pyridin-2-yl]-1-methylethyl]-2-(trifluoromethyl)benzamide], the pest or weed control at 500 µg/mL (in the test with Botrytis cinerea; in test [2]; in the test on Sclerotinia sclerotiorum) was not below 70% throughout. Besides, the pest or weed control at 100 µg/mL in test [3] was not below 50%.

Consider `CC#Cc1cnc(CCNC(=O)c2ccccc2C(F)(F)F)c(Cl)c1` [1-001, N-[2-[3-chloro-5-(1-propynyl)pyridin-2-yl]ethyl]-2-(trifluoromethyl)benzamide], for which the pest or weed control at 500 µg/mL (with Botrytis cinerea; in test [2]; in the test on Sclerotinia sclerotiorum) was not below 70% throughout. The pest or weed control at 100 µg/mL in test [1] and in test [3] was not below 50% throughout.

Take `Cc1nc(C(F)F)c(C(=O)NCC(C)c2ncc(C#CC3CC3)cc2Cl)s1` (stereo not shown) [9-002]: the pest or weed control at 500 µg/mL (in the test on Botrytis cinerea; in test [2]; in the test on Sclerotinia sclerotiorum) was not below 70% in each case. The pest or weed control at 100 µg/mL in test [1] is not below 50%. The inhibition of growth at 100 µg/mL with Asperaillus niger is not below 50%.

For `CC(Cc1ncc(C#CC2CC2)cc1Cl)NC(=O)c1cn(C)nc1C(F)F` (stereo not shown) [8-024, N-[2-[3-chloro-5-(cyclopropylethynyl)pyridin-2-yl]-1-methylethyl]-3-difluoromethyl-1-methyl-1H-pyrazole-4-carboxamide], the pest or weed control at 500 µg/mL (with Botrytis cinerea; in test [2]; in the test on Sclerotinia sclerotiorum) was not below 70% in each case.

As to `CC(Cc1ncc(C#Cc2ccccc2)cc1Cl)NC(=O)c1cn(C)nc1C(F)F` (stereo not shown) [8-027], the pest or weed control at 500 µg/mL (with Botrytis cinerea; in test [2]; with Sclerotinia sclerotiorum) was not below 70% in each case.

Turning to `COC(c1ncc(C#CC2CC2)cc1Cl)C(C)NC(=O)c1nccnc1C(F)(F)F` (stereo not shown) [4-004], the pest or weed control at 500 µg/mL (in the test with Botrytis cinerea; in test [2]; in the test with Sclerotinia sclerotiorum) was not below 70% throughout. Also, the pest or weed control at 100 µg/mL in test [1] was not below 50%.
